“Also recorded” adds a separate entry of the source. Read-outs that look alike come from different tables or passages of the source.
Assays:
hSERT, hNET, hDAT = assay: Human transporter binding: rank order and range of potency over the three transporters; conditions: for Potency (rank-order of potency of binding; S = hSERT, N = hNET, D = hDAT): from KD values; for Potency Range (difference between most potent and least potent binding): ratio of KD over hSERT, hNET, hDAT
From the text: (§1) The program was modified to calculate the Hill coefficient (nH). Data are presented as geometric mean±S.E.M. of at least three independent experiments. One-component models and two-component models were compared using the root mean square error of each fit and the F test.

[1] = target: T1, human serotonin transporter (hSERT) (Homo sapiens, UniProt P31645); assay: Radioligand binding to cloned hSERT, [3H]citalopram, HEK-293 cell membranes; conditions: for Kd: Geometric Mean ± SEM, HCl salts, read-out: Equilibrium Dissociation Constant (KD) for Transporter Binding, hSERT (S); for Binding at hSERT compared to PRC200-SS: in words
T1 construct: expressed in transfected cells; host or cells: HEK-293, stably transfected
T1 sequence (P31645 whole entry): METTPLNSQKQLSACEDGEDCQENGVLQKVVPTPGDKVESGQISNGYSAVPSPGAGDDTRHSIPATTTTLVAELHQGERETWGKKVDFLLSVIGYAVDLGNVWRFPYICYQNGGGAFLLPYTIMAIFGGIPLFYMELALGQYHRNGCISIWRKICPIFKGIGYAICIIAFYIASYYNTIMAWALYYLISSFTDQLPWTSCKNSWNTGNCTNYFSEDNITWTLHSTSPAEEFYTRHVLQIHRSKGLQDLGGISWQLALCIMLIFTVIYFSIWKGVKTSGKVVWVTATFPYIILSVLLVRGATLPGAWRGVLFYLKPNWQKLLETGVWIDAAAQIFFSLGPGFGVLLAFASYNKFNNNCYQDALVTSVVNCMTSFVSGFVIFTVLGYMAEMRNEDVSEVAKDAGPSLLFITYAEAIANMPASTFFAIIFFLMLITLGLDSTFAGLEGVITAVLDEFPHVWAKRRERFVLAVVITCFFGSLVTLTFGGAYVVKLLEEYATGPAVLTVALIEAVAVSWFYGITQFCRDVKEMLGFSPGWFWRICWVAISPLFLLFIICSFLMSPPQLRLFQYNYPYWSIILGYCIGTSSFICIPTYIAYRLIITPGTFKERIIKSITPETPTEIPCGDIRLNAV
Protocol: (§2) HEK-293 cells expressing the recombinant hSERT or hDAT were incubated with Dulbecco's modified Eagles medium (MEM) supplemented with 0.1 mM nonessential amino acid solution for MEM, 5% v/v fetal bovine serum and 1 U/mL penicillin/streptomycin solution. Cells expressing the hNET transporter were incubated with Dulbecco's modified Eagles medium supplemented with 10% v/v fetal bovine serum and 100 U/mL penicillin/streptomycin solution and 2 mM L-glutamine. The cells were grown until 70-80% confluent on 175 cm^2 flasks in a humidified 10% CO2/90% air environment at 37° C., with the selecting antibiotic Geneticin sulfate at 250 μg/mL. The cells were incubated in 10% CO2, 90% air at 37° C. and 100% humidity.
(§3) Cell membranes containing hSERT, hNET, or hDAT were prepared from the cell lines to assay ligand binding for each of the transporters. […] The washed cells were incubated for 5 minutes at 37° C. in 10 mL solution 1 containing 100 mM ethylene glycol-bis N,N,N′,N′-tetraacetic acid (EGTA). The cells were then scraped from the flask surface with a rubber spatula, placed into a centrifuge tube, and collected by centrifugation at 1000×g for 5 minutes at 4° C. The resulting supernatant was discarded, and the cell pellet was resuspended in 0.5 to1.0 mL of the appropriate binding buffer (described below). The resuspended cell pellet was homogenized using a Polytron for 10 seconds at setting 6. The resulting homogenate was centrifuged at about 36,000×g for 10 minutes at 4° C. The supernatant was discarded, and the pellet was resuspended in the same volume of the appropriate binding buffer and centrifuged again. The supernatant was discarded, and the final pellet containing cell membranes was resuspended in the appropriate binding buffer and stored at −80° C. until use.
Radioligand binding assays for the indicated transporters were performed as follows. To assess binding to the cloned hSERT, cells expressing hSERT were homogenized in 50 mM Tris-HCl with 120 mM NaCl and 5 mM KCl (pH 7.4). The binding reaction consisted of 10 μg cell membrane protein, […] [^3H]citalopram (citalopram, [N-methyl-^3H], specific activity 79.0 Ci/mmol; PerkinElmer, Boston, Mass.), and varying concentrations of either unlabeled citalopram or the test compound. A reaction to determine non-specific binding consisted of 10 μg cell membrane protein, 0.5 nM [^3H]citalopram, and 1 μM final concentration of unlabeled citalopram. The reactions were incubated at 22° C. for 60 minutes. Following incubation, the reactions were terminated by rapid filtration through separate GF/B filter strips pretreated with 0.2% polyethylenimine in a 48-well Brandel cell harvester. The cell membrane-containing filter strips were then rinsed five times with ice-cold 0.9% NaCl. After rinsing, individual filters were cut from the strip and placed in a scintillation vial containing 6.5 mL of Redi-Safe (Beckman-Coulter, Fullerton, Calif.).
as §1

[2] = target: T2, human norepinephrine transporter (hNET) (Homo sapiens, UniProt P23975); assay: Radioligand binding to cloned hNET, [3H]nisoxetine, HEK-293 cell membranes; conditions: for Kd: Geometric Mean ± SEM, HCl salts, read-out: Equilibrium Dissociation Constant (KD) for Transporter Binding, hNET (N)
T2 construct: expressed in transfected cells; host or cells: HEK-293, stably transfected
T2 sequence (P23975 whole entry): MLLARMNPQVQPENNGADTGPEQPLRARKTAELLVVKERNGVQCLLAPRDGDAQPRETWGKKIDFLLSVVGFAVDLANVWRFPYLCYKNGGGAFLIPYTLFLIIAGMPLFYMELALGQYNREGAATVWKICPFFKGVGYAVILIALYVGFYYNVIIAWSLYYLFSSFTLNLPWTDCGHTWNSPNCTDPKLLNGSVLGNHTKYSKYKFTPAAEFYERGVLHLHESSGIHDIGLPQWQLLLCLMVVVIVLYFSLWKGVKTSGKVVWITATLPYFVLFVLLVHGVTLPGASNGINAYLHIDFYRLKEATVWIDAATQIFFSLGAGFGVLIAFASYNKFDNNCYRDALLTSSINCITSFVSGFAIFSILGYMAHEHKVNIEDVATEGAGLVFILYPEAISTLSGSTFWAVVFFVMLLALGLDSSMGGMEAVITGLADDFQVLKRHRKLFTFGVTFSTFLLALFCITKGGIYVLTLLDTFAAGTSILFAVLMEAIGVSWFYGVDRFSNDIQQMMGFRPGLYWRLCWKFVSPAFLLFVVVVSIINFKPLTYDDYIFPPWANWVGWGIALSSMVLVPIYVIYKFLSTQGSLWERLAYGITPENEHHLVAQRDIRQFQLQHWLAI
Protocol: as §2, §3
To assess binding to the cloned hNET, cells expressing hNET were homogenized in 50 mM Tris-HCl with 300 mM NaCl and 5 mM KCl (pH 7.4). The binding reaction consisted of 5 μg cell membrane protein, 0.5 nM [^3H]nisoxetine (nisoxetine HCl, [N-methyl-^3H], specific activity 82.0 Ci/mmol; Amersham, Arlington Hts., Ill.), and varying concentrations of either unlabeled nisoxetine or the test compound. A reaction to determine non-specific binding consisted of 5 μg cell membrane protein, 0.5 nM [^3H]nisoxetine, and 1 μM final concentration of unlabeled nisoxetine. The reactions were incubated at 22° C. for 60 minutes. Following incubation, the reactions were terminated by rapid filtration through separate GF/B filter strips pretreated with 0.2% polyethylenimine in a 48-well Brandel cell harvester. The cell membrane-containing filter strips were then rinsed five times with ice-cold 0.9% NaCl. After rinsing, individual filters were cut from the strip and placed in a scintillation vial containing 6.5 mL of Redi-Safe (Beckman-Coulter, Fullerton, Calif.).
as §1

[3] = target: T3, human dopamine transporter (hDAT) (Homo sapiens, UniProt Q01959); assay: Radioligand binding to cloned hDAT, [3H]WIN35428, HEK-293 cell membranes; conditions: for Binding at hDAT compared to PRC200-SS: in words
T3 construct: expressed in transfected cells; host or cells: HEK-293, stably transfected
T3 sequence (Q01959 whole entry): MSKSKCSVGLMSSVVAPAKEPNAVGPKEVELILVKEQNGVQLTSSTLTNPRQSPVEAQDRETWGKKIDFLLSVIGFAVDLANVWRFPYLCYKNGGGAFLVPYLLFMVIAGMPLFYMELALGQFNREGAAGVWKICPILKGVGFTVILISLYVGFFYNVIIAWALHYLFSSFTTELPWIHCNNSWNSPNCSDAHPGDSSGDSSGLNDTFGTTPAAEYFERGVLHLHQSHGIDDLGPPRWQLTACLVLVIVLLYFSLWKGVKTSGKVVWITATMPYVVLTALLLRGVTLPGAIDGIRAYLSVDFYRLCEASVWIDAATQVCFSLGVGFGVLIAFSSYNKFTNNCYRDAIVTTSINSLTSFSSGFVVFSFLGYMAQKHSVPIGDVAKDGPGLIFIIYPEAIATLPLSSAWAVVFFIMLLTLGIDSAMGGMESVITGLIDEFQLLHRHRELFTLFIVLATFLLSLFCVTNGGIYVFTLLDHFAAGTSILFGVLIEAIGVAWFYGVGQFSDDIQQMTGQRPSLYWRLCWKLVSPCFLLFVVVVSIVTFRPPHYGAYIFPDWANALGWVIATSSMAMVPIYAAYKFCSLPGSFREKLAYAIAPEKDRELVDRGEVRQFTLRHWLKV
Protocol: as §2, §3
To assess binding to the cloned hDAT, cells expressing hDAT were homogenized in 50 mM Tris-HCl with 120 mM NaCl (pH 7.4). The binding reaction contained 15 μg cell membrane protein, 1 nM [^3H]WIN35428 (WIN35428, [N-methyl-^3H], specific activity 85.9 Ci/mmol; PerkinElmer, Boston, Mass.), and varying concentrations of either unlabeled WIN35428 or the test compound. A reaction to determine non-specific binding contained 15 μg cell membrane protein, 1 nM [^3H]WIN35428, and 10 μM final concentration of unlabeled WIN35428. The reactions were incubated at 22° C. for 1 hour. Following incubation, the reactions were terminated by rapid filtration through separate GF/B filter strips pretreated with 0.2% polyethylenimine in a 48-well Brandel cell harvester. The cell membrane-containing filter strips were then rinsed five times with ice-cold 0.9% NaCl. After rinsing, individual filters were cut from the strip and placed in a scintillation vial containing 6.5 mL of Redi-Safe (Beckman-Coulter, Fullerton, Calif.).
as §1

[4] = Geometric Mean ± SEM, HCl salts, read-out: Equilibrium Dissociation Constant (KD) for Transporter Binding, hDAT (D)

Compound | Potency (rank-order of potency of binding; S = hSERT, N = hNET, D = hDAT) (hSERT, hNET, hDAT) | Potency Range (difference between most potent and least potent binding) (hSERT, hNET, hDAT) | Kd [1] | Kd [2] | Kd [3] | Potency (rank-order of potency of binding; S = hSERT, N = hNET, D = hDAT) (hSERT, hNET, hDAT; listed as MCJ001-NH2-cyc-SS) | Binding at hSERT compared to PRC200-SS [1] | Binding at hSERT compared to PRC200-SS ([1]; listed as MCJ001-NH2-cyc-SS) | Binding at hNET compared to PRC200-SS ([2]; in words) | Binding at hDAT compared to PRC200-SS [3] | Kd [3, 4]
CNC[C@@H](c1ccc2ccccc2c1)[C@@H](F)c1ccccc1 [MCJ001-F-RR, (2R,3R)-3-fluoro-N-methyl-2-(naphthalen-2-yl)-3-phenylpropan-1-amine] | S > D > N | 11 fold | 16 ± 1 nM | 170 ± 10 nM | 150 ± 9 nM | – | – | – | – | – | –
CN1CN[C@H](c2ccccc2)[C@@H](c2ccc3ccccc3c2)C1 [MCJ001-NH2-Cyc-SS, (4S,5S)-1-methyl-5-(naphthalen-2-yl)-4-phenylhexahydropyrimidine] | S>D>N | 50 fold | 0.26 ± 0.02 nM | 13 ± 1 nM | 7.7 ± 0.6 nM | S > D > N | markedly enhanced potency at binding to hSERT | greater binding at hSERT | lower potency of binding to hNET | several fold enhanced potency at binding to hDAT; also recorded: several fold more potent binding at hDAT | –
CNC[C@@H](c1ccc2ccccc2c1)[C@H](Cl)c1ccccc1 [MCJ001-Cl-SR, (2R,3S)-3-chloro-N-methyl-2-(naphthalen-2-yl)-3-phenylpropan-1-amine] | S > D > N | 13 fold | 55 ± 5 nM | 700 ± 50 nM | – | – | – | – | – | – | 350 ± 20 nM
CNC[C@@H](c1ccc2ccccc2c1)[C@@H](N)c1ccccc1 (racemic) [MCJ001-NH2-(±)-RR, (2R,3R)-N1-methyl-2-(naphthalen-2-yl)-3-phenylpropane-1,3-diamine] | S > N > D | 22 fold | 1.27 ± 0.06 nM | 2.5 ± 0.1 nM | 28 ± 4 nM | – | greater binding at hSERT | – | – | – | –
CNC[C@H](c1ccc2ccccc2c1)[C@@H](N)c1ccccc1 [MCJ001-NH2-RS, (2S,3R)-N1-methyl-2-(naphthalen-2-yl)-3-phenylpropane-1,3-diamine] | N > S > D | 4.9 fold | 100 ± 7 nM | 78 ± 4 nM | – | – | – | – | – | – | 380 ± 30 nM
CNC[C@H](c1ccc2ccccc2c1)[C@H](OCCCCO[C@H](c1ccccc1)[C@H](CNC)c1ccc2ccccc2c1)c1ccccc1 [MCJ001-Dimer4-SS, (2S,2′S,3S,3′S)-3,3′-(butane-1,4-diylbis(oxy))bis(N-methyl-2-(naphthalen-2-yl)-3-phenylpropan-1-amine)] | S > D > N | 2.8 fold | 94 ± 10 nM | 259 ± 5 nM | – | – | – | – | – | – | 240 ± 1 nM
CCN(CC)C(=O)C1(c2ccccc2)CC1CN (stereo not shown) [Milnacipran, reference compound] | S > N > D | – | – | – | – | – | – | – | – | – | –
CCOc1ccccc1OC(c1ccccc1)C1CNCCO1 (stereo not shown) [Reboxetine, reference compound] | N > S > D | – | – | – | – | – | – | – | – | – | –
CNC[C@@H](c1ccc2ccccc2c1)[C@@H](Cl)c1ccccc1 [MCJ001-Cl-RR, (2R,3R)-3-chloro-N-methyl-2-(naphthalen-2-yl)-3-phenylpropan-1-amine] | S > N > D | 8.3 fold | 35 ± 2 nM | 234 ± 5 nM | – | – | – | – | – | – | 290 ± 20 nM
CN1CO[C@@H](c2ccccc2)[C@H](c2ccc3ccccc3c2)C1 [MCJ001-OH-Cyc-RR, (5R,6R)-3-methyl-5-(naphthalen-2-yl)-6-phenyl-1,3-oxazinane] | D > S > N | 2.6 fold | 240 ± 20 nM | 460 ± 50 nM | – | – | – | – | – | – | 180 ± 20 nM
CNCC[C@H](Oc1cccc2ccccc12)c1cccs1 [Duloxetine, reference compound] | S > N > D | – | – | – | – | – | – | – | – | – | –
C[N+]1(C)CN[C@H](c2ccccc2)[C@@H](c2ccc3ccccc3c2)C1.[Cl-] [MCJ002-NH2-Cyc-SS, (4S,5S)-1,1-dimethyl-5-(naphthalen-2-yl)-4-phenylhexahydropyrimidin-1-ium chloride] | S > D > N | 53 fold | 1.9 ± 0.2 nM | 100 ± 10 nM | 18 ± 2 nM | – | greater binding at hSERT | – | – | Enhanced binding to hDAT | –
c1ccc([C@H]2OCNC[C@@H]2c2ccc3ccccc3c2)cc1 [MCJ000-OH-Cyc-SS, (5S,6S)-5-(naphthalen-2-yl)-6-phenyl-1,3-oxazinane] | S > D > N | 41 fold | 8 ± 1 nM | 99 ± 6 nM | – | – | – | – | – | – | 330 ± 50 nM

Source: US8440724B2, “Inhibiting neurotransmitter reuptake” (Mayo Foundation for Medical Education and Research, priority 2008, dated 2013)
